# ChEMBL document CHEMBL5120839, “Design, synthesis and antibacterial activity of novel pleuromutilin derivatives with thieno[2,3-d]pyrimidine substitution” (Eur J Med Chem, 2022)
# Active and inactive are the calls of the source. No cut-off for these calls is given here.
# Legend:
# [1] = system: Mycoplasmoides pneumoniae; assay: Antibacterial activity against Mycoplasma pneumoniae assessed as inhibition of bacterial growth; assay type: functional
# Shigella dysenteriae = assay: Antibacterial activity against Shigella dysenteriae assessed as inhibition of bacterial growth; assay type: functional
# Staphylococcus aureus [2] = assay: Antibacterial activity against Staphylococcus aureus assessed as diameter of the inhibition circle at 1 mg/ml incubated for 48 hrs; assay type: functional
# Staphylococcus aureus [3] = assay: Antibacterial activity against Staphylococcus aureus assessed as inhibition of bacterial growth incubated for 24 hrs by microbroth two-fold dilution method; assay type: functional
# Streptococcus agalactiae [4] = assay: Antibacterial activity against Streptococcus agalactiae assessed as inhibition of bacterial growth incubated for 24 hrs by microbroth two-fold dilution method; assay type: functional
# Escherichia coli [5] = assay: Antibacterial activity against Escherichia coli assessed as inhibition of bacterial growth incubated for 24 hrs by microbroth two-fold dilution method; assay type: functional
# Staphylococcus aureus [6] = assay: Antibacterial activity against Methicillin-resistant Staphylococcus aureus BNCC 337371 assessed as inhibition of bacterial growth incubated for 24 hrs by microbroth two-fold dilution method; assay type: functional
# Staphylococcus aureus [7] = assay: Bactericidal activity against Staphylococcus aureus assessed as bacterial killing at 8 times MIC incubated up to 24 hrs by time kill assay; assay type: functional, organism-based
# Staphylococcus aureus [8] = assay: Antibacterial activity against Staphylococcus aureus assessed as bacterial growth by measuring optical density incubated for 12 hrs by real time growth curve analysis; assay type: functional
# Streptococcus agalactiae [9] = assay: Antibacterial activity against Streptococcus agalactiae assessed as bacterial growth by measuring optical density at 0.5 times MIC incubated for 12 hrs by real time growth curve analysis; assay type: functional
# Escherichia coli [10] = assay: Antibacterial activity against Escherichia coli assessed as bacterial growth by measuring optical density at 0.5 times MIC incubated for 12 hrs by real time growth curve analysis; assay type: functional
# Streptococcus agalactiae [11] = assay: Antibacterial activity against Streptococcus agalactiae assessed as bacterial growth by measuring optical density at 1 to 2 times MIC incubated for 12 hrs by real time growth curve analysis; assay type: functional
# Escherichia coli [12] = assay: Antibacterial activity against Escherichia coli assessed as bacterial growth by measuring optical density at 1 to 2 times MIC incubated for 12 hrs by real time growth curve analysis; assay type: functional
# Staphylococcus aureus [13] = assay: Bactericidal activity against Staphylococcus aureus assessed as bacterial killing at 1 to 4 times MIC incubated up to 24 hrs by time kill assay; assay type: functional
# L02 = assay: Cytotoxicity against human L02 cells assessed as cell viability incubated for 16 hrs by MTT assay; assay type: toxicity, cell-based; details: l02, 16 h
# HEK-293T = assay: Cytotoxicity against human HEK293T cells assessed as cell viability incubated for 16 hrs by MTT assay; assay type: toxicity, cell-based
# Staphylococcus aureus [14] = assay: Bactericidal activity against Staphylococcus aureus assessed as bacterial killing at 32 times MIC incubated for 12 hrs by time kill assay; assay type: functional
# Staphylococcus aureus [15] = assay: Bactericidal activity against Staphylococcus aureus assessed as bacterial killing at 16 times MIC incubated for 12 hrs by time kill assay; assay type: functional
# Staphylococcus aureus [16] = assay: Bactericidal activity against Staphylococcus aureus assessed as bacterial killing at 32 times MIC incubated for 9 hrs by time kill assay; assay type: functional
SMILES,MIC [1] [mg/L],MIC (Shigella dysenteriae) [mg/L],inhibition zone diameter (Staphylococcus aureus [2]) [mm],MIC (Staphylococcus aureus [3]) [mg/L],MIC (Streptococcus agalactiae [4]) [mg/L],MIC (Escherichia coli [5]) [mg/L],MIC (Staphylococcus aureus [6]) [mg/L],Activity (Staphylococcus aureus [7]),OD (Staphylococcus aureus [8]),OD (Streptococcus agalactiae [9]),OD (Escherichia coli [10]),OD (Streptococcus agalactiae [11]),OD (Escherichia coli [12]),Activity (Staphylococcus aureus [13]) [%],Activity (L02),Activity (HEK-293T),Activity (Staphylococcus aureus [14]) [%],Activity (Staphylococcus aureus [15]) [%],Activity (Staphylococcus aureus [16]) [%]
C=C[C@]1(C)C[C@@H](OC(=O)CSC(C)(C)CNC(=O)[C@H](N)C(C)C)[C@]2(C)[C@H](C)CC[C@]3(CCC(=O)[C@H]32)[C@@H](C)[C@@H]1O [VALNEMULIN],0.03,0.03,,,,,,,,,,,,,,,,,
C=C[C@]1(C)C[C@@H](OC(=O)CSCCN(CC)CC)[C@]2(C)[C@H](C)CC[C@]3(CCC(=O)[C@H]32)[C@@H](C)[C@@H]1O [TIAMULIN],,,25.2,0.488,0.122,15.6,0.488,Active,,,,,,,,,,,
C=C[C@]1(C)C[C@@H](OC(=O)CSc2nc(NCCO)c3ccccc3n2)[C@]2(C)[C@H](C)CC[C@]3(CCC(=O)[C@H]32)[C@@H](C)[C@@H]1O,,,30.5,0.0153,0.0153,0.03,0.0305,,<0.3,<0.3,<0.3,0.1,0.1,,,,,,
C=C[C@]1(C)C[C@@H](OC(=O)CSc2nc(NCCO)c3ccsc3n2)[C@]2(C)[C@H](C)CC[C@]3(CCC(=O)[C@H]32)[C@@H](C)[C@@H]1O,,,33,0.0019,0.0019,0.0076,0.0019,,<0.2,<0.3,<0.3,0.1,0.1,99.9,Non-Toxic,Non-Toxic,,,
C=C[C@]1(C)C[C@@H](OC(=O)CSc2nc(N3CCN(CC)CC3)c3ccsc3n2)[C@]2(C)[C@H](C)CC[C@]3(CCC(=O)[C@H]32)[C@@H](C)[C@@H]1O,,,33.5,0.0019,0.122,0.122,0.0076,,<0.2,<0.3,<0.3,0.1,0.1,99.9,Non-Toxic,Non-Toxic,99.9,99.9,99.9
